Measured values published in patent publication US7655633B2, “Nitrogen-containing heterocyclic derivatives, medicinal compositions containing the same and medicinal use thereof” (Kissei Pharmaceutical Co., Ltd., priority 2002, dated 2010).

Target: T1, human SGLT2 (Homo sapiens, UniProt P31639)
T1 construct: expressed in transfected cells
T1 sequence (P31639 1-672): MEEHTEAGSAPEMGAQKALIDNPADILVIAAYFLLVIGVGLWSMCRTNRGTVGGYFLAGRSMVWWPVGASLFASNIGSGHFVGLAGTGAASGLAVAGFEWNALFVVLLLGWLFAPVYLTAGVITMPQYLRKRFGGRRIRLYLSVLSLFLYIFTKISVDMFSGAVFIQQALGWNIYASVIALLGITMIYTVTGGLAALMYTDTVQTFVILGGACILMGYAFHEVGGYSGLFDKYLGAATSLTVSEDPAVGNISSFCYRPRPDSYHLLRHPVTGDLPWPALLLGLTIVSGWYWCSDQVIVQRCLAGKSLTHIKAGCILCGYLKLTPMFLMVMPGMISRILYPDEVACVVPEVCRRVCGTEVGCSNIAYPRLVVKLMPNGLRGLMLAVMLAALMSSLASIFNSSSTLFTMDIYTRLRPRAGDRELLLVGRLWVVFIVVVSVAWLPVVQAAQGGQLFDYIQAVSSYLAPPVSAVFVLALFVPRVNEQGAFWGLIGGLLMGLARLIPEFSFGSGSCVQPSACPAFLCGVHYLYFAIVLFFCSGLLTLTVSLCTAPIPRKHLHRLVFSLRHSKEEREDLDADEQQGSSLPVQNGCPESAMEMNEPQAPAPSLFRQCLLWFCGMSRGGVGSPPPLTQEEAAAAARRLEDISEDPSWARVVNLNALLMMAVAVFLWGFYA
Assay: Assay for inhibitory effects on human SGLT2 activity (uptake of methyl-α-D-glucopyranoside in CS2-5E cells)
Type: cell-based
Settings: inhibition of 14C-labeled α-MG (1 mM) uptake, CHO-K1 cells stably expressing human SGLT2 (CS2-5E), 37° C., 1 hour
Experimental: Assay for Inhibitory Effects on Human SGLT2 Activity
1) Cloning and Construction of the Vector Expressing Human SGLT2
The cDNA library was prepared for PCR amplification by reverse transcription from total RNA deprived from human kidney (Ori gene) using oligo-dT as a primer. Using this cDNA library as a template, the base sequence coding 2 to 2039 bp of human SGLT2 (ACCESSION: M95549, M95299), which was reported by R. G. Wells et al., was amplified by PCR method and inserted into the multi-cloning site of pcDNA3.1(−) (Invitrogen). The DNA sequence inserted was perfectly matched to the previously reported sequence.
2) Establishment of Cell Line Stably Expressing Human SGLT2
The expression vector of human SGLT2 was digested by Sca I into a linear DNA. The linear DNA was transfected into CHO-K1 cells by means of lipofection (Effectene Transfection Reagent: QIAGEN). Neomycin resistant cell lines were obtained by culture in the medium containing 1 mg/mL of G418 (LIFE TECHNOLOGIES), and then the activity against the uptake of methyl-α-D-gluco-pyranoside was measured by the method described below. […] Afterward, CS2-5E cells were cultured in the presence of G418 at 200 μg/mL. […]
CS2-5E cells were seeded into a 96-well culture plate at a density of 3×10^4 cells/well and cultured for 2 days, and were used in the uptake assay. […] Radioactivity was measured by means of scintillation counter (Packard). […]

- IC50: 3 nM
Structure (SMILES): Cc1cc(C)c(Cc2ccc(C)c(F)c2)c(O[C@@H]2O[C@H](CO)[C@@H](O)[C@H](O)[C@H]2O)n1 [Example 1, 2-(β-D-Glucopyranosyloxy)-3-(3-fluoro-4-methylbenzyl)-4,6-dimethylpyridine]
